Reference: article PMC7483518, “Destabilizing single chain major histocompatibility complex class I protein for repurposed enterokinase proteolysis” (Scientific Reports, 2020)
Like-named read-outs stand apart in the source and are kept apart here.

What was measured:
[1] = target: photolabile unchained HLA-A*11:01 pMHC-I protein (Homo sapiens, UniProt P04439, A114D/D185E/E176A/F33Y/L180Q/S129P/T187R); assay: ELISA with photolabile unchained pMHC-I protein and UV irradiation; type: binding; conditions: for ELISA450nm: Table 2, 62.5 nM photolabile pMHC-I mixture, 5 μM peptide in PBS, UV 365 nm 2 × 5 min on ice, 2 h room temperature on anti-β2m plate, Abs450nm − Abs570nm, instability cutoff < 0.6
[2] = system: HLA-A*11:01 single chain protein; type: biochemical, Human; design: EZ50kDa / EZ50kD (pH 6.2) / EZ50kD (pH 8) / EZ50kD (normalised: EBV1101 = 1, EBV0201 = 0) / EZ50kDa rank: unit not given beside the values; conditions: for EZ50kDa rank: HLA-A*11:01 single chain protein, 9-mer peptides;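 for EZ50kD (pH 6.2): scaled with positive control peptide as 1 and negative control peptide as 0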
[3] = EASY MHC-I A*11:01, 2019-07-25, mean of the 2 replicates
[4] = EASY MHC-I A*11:01, gel 2019-07-17 lr1028-1036 5min, mean of 2 replicates
[5] = EASY MHC-I A*11:01, gel 2019-07-17 lr1028-1036 5min, replicate 1 (lanes 1-14)
[6] = EASY MHC-I A*11:01, gel 2019-07-17 lr1028-1036 5min, replicate 2 (lanes 15-28)
[7] = EASY MHC-I A*11:01, gel 2019-07-23 lr1037_1045_5min, replicate 1 (first lane set)
[8] = EASY MHC-I A*11:01, gel 2019-07-23 lr1037_1045_5min, replicate 2 (second lane set)

Compound: Nc1nc(Nc2ccc3c(c2)CC[C@@H](N2CCCC2)CC3)nn1-c1cc2c(nn1)-c1ccccc1CCC2 [CS1046]
- EASY_mean ([1]; […], mean, STDEV): -0.001122

Compound: AIKTSPKA [EX1001]
- EASY_mean [1]: -0.01453
- EZ_mean [2]: -0.04572

Compound: AIKTSPKAN [EX1006]
- EASY_mean ([1]; […], mean, STDEV): 0.003202
- EZ_mean [2, 3]: -0.02264

Compound: AIKTSPKANK [EX1012, EGFR exon 19 deletion-derived peptide]
- EASY_mean ([1]; […], mean, STDEV): 0.01176
- EZ_mean [2, 3]: -0.007078

Compound: AIKTSPKANKE [EX1019]
- EASY_mean ([1]; […], mean, STDEV): 0.001081
- EZ_mean ([2]; EASY MHC-I A*11:01, 2019-07-26, mean of the 2 replicates): -0.09791

Compound: AIKTSPKANKEI [EX1027]
- EASY_mean [1]: -0.02114
- EZ_mean ([2]; EASY MHC-I A*11:01, 2019-08-01, mean of the 2 replicates): -0.13

Compound: AINSEMFLR [reference compound]
- EZ50kDa rank ([2]; pH 6.2, 37 °C): 0.901
- EZ50kD (pH 6.2) ([2]; pH 6.2): 0.9012
- EZ50kD (pH 8) [2]: 1.19

Compound: ATVLMGLGK [reference compound]
- ELISA450nm [1]: 1.911
- EZ50kD (pH 6.2) ([2]; Table 2, pH 6.2, 37 °C, enterokinase, Eq. (4), instability cutoff < 0.3): 1.039

Compound: ATVQGQNLK [reference compound]
- EZ50kD (pH 6.2) ([2]; pH 6.2): 0.8968
- EZ50kD (pH 8) [2]: 0.767

Compound: ATYGWNLVK [reference compound]
- EZ50kD (pH 6.2) ([2]; pH 6.2): 0.8706
- EZ50kD (pH 8) [2]: 1.994

Compound: AVQTKPGLFK [reference compound]
- EZ50kD (pH 6.2) ([2]; pH 6.2): 0.955
- EZ50kD (pH 8) [2]: 1.546

Compound: CLTSTVQLIM [TM1018]
- EASY_mean ([1]; […], mean, STDEV): 0.01464
- EZ_mean ([2]; EASY MHC-I A*11:01, run 2019-08-07, 5min, mean of 2 replicates): -0.01698

Compound: CLTSTVQLIMQ [TM1029]
- EASY_mean ([1]; ELISA signal, mean, […]): -0.0718
- EZ_mean [2]: -0.1239

Compound: CLTSTVQLIMQL [TM1040]
- EASY_mean ([1]; ELISA signal, mean, […]): -0.0545
- EZ_mean [2]: -0.1197

Compound: DFGRAKLL [LR1005]
- EASY_mean ([1]; ELISA signal, mean, […]): -0.01718
- EZ_mean [2]: -0.05649

Compound: DFGRAKLLG [LR1014]
- EASY_mean ([1]; ELISA signal, mean, […]): -0.02793
- EZ_mean [2]: -0.05414

Compound: DFGRAKLLGA [LR1024]
- EASY_mean ([1]; ELISA signal, mean, […]): -0.02296
- EZ_mean [2]: -0.06389

Compound: DFGRAKLLGAE [LR1035]
- EASY_mean [1]: -0.05461
- EZ_mean [2, 4]: -0.0623
- EZ50kD (normalised: EBV1101 = 1, EBV0201 = 0) [2, 5]: -0.08387
- Norm (50 kDa band adj. volume normalised: Undig_37C = 1, Dig_37C = 0) [2, 5]: -0.0751
- EZ50kD (normalised: EBV1101 = 1, EBV0201 = 0) [2, 6]: -0.04073
- Norm (50 kDa band adj. volume normalised: Undig_37C = 1, Dig_37C = 0) [2, 6]: -0.03413

Compound: DFGRAKLLGAEE [LR1047]
- EASY_mean [1]: -0.01199
- EZ_mean [2]: -0.04163

Compound: DLAQCFFCFK [reference compound]
- ELISA450nm [1]: 0.3956

Compound: FGRAKLLG [LR1006]
- EASY_mean ([1]; ELISA signal, mean, […]): -0.01563
- EZ_mean [2]: -0.05388

Compound: FGRAKLLGA [LR1015]
- EASY_mean ([1]; […], mean, STDEV): -0.02405
- EZ_mean [2]: -0.04617

Compound: FGRAKLLGAE [LR1025]
- EASY_mean ([1]; ELISA signal, mean, […]): -0.01153
- EZ_mean [2]: -0.04476

Compound: FGRAKLLGAEE [LR1036]
- EASY_mean [1]: -0.04853
- EZ_mean [2, 4]: -0.05281
- EZ50kD (normalised: EBV1101 = 1, EBV0201 = 0) [2, 5]: -0.07114
- Norm (50 kDa band adj. volume normalised: Undig_37C = 1, Dig_37C = 0) [2, 5]: -0.06733
- EZ50kD (normalised: EBV1101 = 1, EBV0201 = 0) [2, 6]: -0.03448
- Norm (50 kDa band adj. volume normalised: Undig_37C = 1, Dig_37C = 0) [2, 6]: -0.02973

Compound: FGRAKLLGAEEK [LR1048]
- EASY_mean [1]: -0.01082
- EZ_mean [2]: -0.03879

Compound: FGSLLDYV [CS1006]
- EASY_mean [1]: -0.03548
- EZ_mean [2]: -0.06948

Compound: FGSLLDYVR [CS1015]
- EASY_mean [1]: -0.01602
- EZ_mean [2]: -0.05849

Compound: FGSLLDYVRE [CS1025]
- EASY_mean [1]: 0.005114
- EZ_mean [2]: -0.05956

Compound: FGSLLDYVREH [CS1036]
- EASY_mean [1]: 0.0933
- EZ_mean [2]: 0.04199
- EZ50kDa ([2]; Table 3, EGFR peptide library (n = 177, duplicated), pH 6.2, 37 °C, 14 h, enterokinase, Eq. (4)): 0.0420 ± 0.010

Compound: FIDSYICQV [reference compound]
- ELISA450nm [1]: 0.3491

Compound: FLLTKILTI [reference compound]
- ELISA450nm [1]: 0.1791

Compound: FTNDSIISH [reference compound]
- EZ50kDa rank ([2]; pH 6.2, 37 °C): 0.696
- EZ50kD (pH 6.2) ([2]; pH 6.2): 0.6961
- EZ50kD (pH 8) [2]: 0.1339

Compound: GAMLFLISGK [reference compound]
- EZ50kD (pH 6.2) ([2]; pH 6.2): 0.7468
- EZ50kD (pH 8) [2]: 1.036

Compound: GLSPTVWLSA [reference compound]
- ELISA450nm [1]: 0.2488

Compound: GRAKLLGA [LR1007]
- EASY_mean ([1]; ELISA signal, mean, […]): -0.02108
- EZ_mean [2]: -0.06438

Compound: GRAKLLGAE [LR1016]
- EASY_mean ([1]; ELISA signal, mean, […]): -0.02066
- EZ_mean [2]: -0.03777

Compound: GRAKLLGAEE [LR1026]
- EASY_mean ([1]; […], mean, STDEV): -0.01509
- EZ_mean [2]: -0.04989

Compound: GRAKLLGAEEK [LR1037]
- EASY_mean [1]: 0.0001747
- EZ_mean ([2]; EASY MHC-I A*11:01, gel 2019-07-23 lr1037_1045_5min, mean of 2 replicates): -0.05993
- EZ50kD (normalised: EBV1101 = 1, EBV0201 = 0) [2, 7]: -0.04549
- Norm (50 kDa band adj. volume normalised: Undig_37C = 1, Dig_37C = 0) [2, 7]: -0.01318
- EZ50kD (normalised: EBV1101 = 1, EBV0201 = 0) [2, 8]: -0.07437
- Norm (50 kDa band adj. volume normalised: Undig_37C = 1, Dig_37C = 0) [2, 8]: 0.01353

Compound: GRAKLLGAEEKE [LR1049]
- EASY_mean [1]: -0.01715
- EZ_mean [2]: -0.05058

Compound: GSLLDYVR [CS1007]
- EASY_mean [1]: -0.02696
- EZ_mean [2]: -0.06759

Compound: GSLLDYVRE [CS1016]
- EASY_mean [1]: -0.02695
- EZ_mean [2]: -0.06376
